{
  "source": "ChEMBL document CHEMBL6096719",
  "about": "“Kidney Targeting Smart Antibiotic Discovery: Multimechanism Pleuromutilins for Pyelonephritis Therapy” (J Med Chem, 2025)",
  "key": {"[1]": {"assay": "Aqueous solubility of the compound incubated for 12 hrs by UV-Vis spectrophotometry", "assay_type": "physicochemical", "conditions": "buffer"}, "[2]": {"tested_on": "Staphylococcus aureus", "assay": "Antibacterial activity against methicillin-resistant Staphylococcus aureus ATCC 33591 assessed as inhibition of bacterial growth incubated for 24 hrs by broth microdilution method", "assay_type": "functional"}, "[3]": {"tested_on": "Staphylococcus aureus", "assay": "Antibacterial activity against methicillin-resistant Staphylococcus aureus ATCC 43300 assessed as inhibition of bacterial growth incubated for 24 hrs by broth microdilution method", "assay_type": "functional"}, "[4]": {"tested_on": "Staphylococcus aureus", "assay": "Antibacterial activity against Staphylococcus aureus ATCC 29213 assessed as inhibition of bacterial growth incubated for 24 hrs by broth microdilution method", "assay_type": "functional"}, "[5]": {"tested_on": "Acinetobacter baumannii", "assay": "Antibacterial activity against Acinetobacter baumannii ATCC 19606 assessed as inhibition of bacterial growth incubated for 24 hrs by broth microdilution method", "assay_type": "functional"}, "[6]": {"tested_on": "Klebsiella pneumoniae", "assay": "Antibacterial activity against multidrug-resistant Klebsiella pneumoniae 893 assessed as inhibition of bacterial growth incubated for 24 hrs by broth microdilution method", "assay_type": "functional"}, "[7]": {"assay": "Cytotoxicity against human HEK293 cells assessed as reduction in cell viability incubated for 24 hrs by CCK8 assay", "assay_type": "toxicity, cell-based"}, "[8]": {"assay": "Cytotoxicity against human A549 cells assessed as reduction in cell viability incubated for 24 hrs by CCK8 assay", "assay_type": "toxicity, cell-based"}, "[9]": {"tested_on": "Mycoplasmopsis synoviae", "assay": "Anti-mycoplasma activity against Mycoplasma synoviae WVU1853 NCTC10124 assessed as inhibition of bacterial growth incubated for 3 to 5 days by broth microdilution method", "assay_type": "functional", "conditions": "time 3-5 day"}, "[10]": {"tested_on": "Chlamydia pneumoniae", "assay": "Anti-mycoplasma activity against Chlamydophila pneumoniae AR39 ATCC53592 assessed as inhibition of bacterial growth incubated for 3 to 5 days by broth microdilution method", "assay_type": "functional", "conditions": "time 3-5 day"}, "[11]": {"tested_on": "Chlamydia pneumoniae", "assay": "Anti-mycoplasma activity against Chlamydophila pneumoniae CWL-029 VR1310 assessed as inhibition of bacterial growth incubated for 3 to 5 days by broth microdilution method", "assay_type": "functional", "conditions": "time 3-5 day"}, "[12]": {"tested_on": "Chlamydia pneumoniae", "assay": "Anti-mycoplasma activity against Chlamydophila pneumoniae TW183 VR-2282 assessed as inhibition of bacterial growth incubated for 3 to 5 days by broth microdilution method", "assay_type": "functional", "conditions": "time 3-5 day"}, "[13]": {"tested_on": "Escherichia coli", "assay": "Antibiofilm activity against Escherichia coli ATCC25922 assessed as disruption of preformed biofilms at 0.5 ug/ml incubated for 24 hrs with preformed biofilms by crystal violet staining based analysis", "assay_type": "functional", "conditions": "dose 0.5 µg/ml"}, "[14]": {"tested_on": "Escherichia coli", "assay": "Antibiofilm activity against Escherichia coli ATCC25922 assessed as eradication of biofilms at 0.5 ug/ml incubated for 4 hrs by field emission scanning electron microscopy", "assay_type": "functional, organism-based", "conditions": "dose 0.5 µg/ml"}, "[15]": {"tested_on": "Cell membrane", "assay": "Disruption of cell membrane in Escherichia coli ATCC25922 assessed as decrease in intracellular ATP content at 0.125 to 0.25 ug/ml incubated for 30 mins by luminescence based analysis", "conditions": "dose 0.125-0.25 µg/ml"}, "[16]": {"tested_on": "Cell membrane", "assay": "Disruption of cell membrane in Escherichia coli ATCC25922 assessed as increase in extracellular ATP content at 0.125 to 0.25 ug/ml incubated for 30 mins by luminescence based analysis", "conditions": "dose 0.125-0.25 µg/ml"}, "[17]": {"tested_on": "Cell membrane", "assay": "Disruption of cell membrane in methicillin-resistant Staphylococcus aureus ATCC33591 assessed as dissipation of membrane potential at 0.125 to 0.5 ug/ml incubated for 30 mins by DiBAC4(3) probe based fluorescence spectrophotometry", "conditions": "dose 0.125-0.5 µg/ml"}, "[18]": {"tested_on": "Cell membrane", "assay": "Disruption of cell membrane in Escherichia coli ATCC25922 assessed as leakage of bacterial cell contents by measuring increase in conductivity of bacterial solution at MIC measured for 6 hrs by conductivity meter analysis"}, "[19]": {"tested_on": "Staphylococcus aureus", "assay": "Antibacterial activity against methicillin-resistant Staphylococcus aureus ATCC33591 infected in systemic intraperitoneal infection Kunming mouse model assessed as decrease in bacterial colonies in kidneys administered intraperitoneally at 1 hr post-infection and measured after 7 days", "assay_type": "functional, organism-based", "conditions": "dose 5-20 mg/kg, route ip, time 7.0 day"}, "[20]": {"target": "T1, Solute carrier family 22 member 2 (Homo sapiens, UniProt O15244)", "T1 sequence (O15244 whole entry)": "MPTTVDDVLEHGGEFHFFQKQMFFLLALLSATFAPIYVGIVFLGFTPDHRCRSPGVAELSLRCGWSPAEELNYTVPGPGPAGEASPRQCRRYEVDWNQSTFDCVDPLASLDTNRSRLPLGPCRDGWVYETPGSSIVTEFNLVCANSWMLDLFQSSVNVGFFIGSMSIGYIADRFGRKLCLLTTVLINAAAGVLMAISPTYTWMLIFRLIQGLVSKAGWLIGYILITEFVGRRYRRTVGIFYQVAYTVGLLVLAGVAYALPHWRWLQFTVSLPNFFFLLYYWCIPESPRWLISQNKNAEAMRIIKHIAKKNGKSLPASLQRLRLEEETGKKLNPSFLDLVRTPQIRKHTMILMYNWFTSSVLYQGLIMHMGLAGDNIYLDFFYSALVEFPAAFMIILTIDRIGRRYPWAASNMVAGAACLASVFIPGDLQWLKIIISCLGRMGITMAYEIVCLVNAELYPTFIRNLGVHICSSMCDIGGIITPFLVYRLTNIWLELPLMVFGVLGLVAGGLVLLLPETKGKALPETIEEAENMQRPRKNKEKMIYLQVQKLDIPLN", "assay": "Substrate activity at human OCT2 transfected in HEK293 cells assessed as increase in intracellular drug content at 100 uM measured after 5 mins", "assay_type": "ADME, cell-based", "conditions": "hek293, 5 min"}, "[21]": {"assay": "Cmax in Sprague-Dawley rat at 5 mg/kg, iv", "assay_type": "ADME, organism-based", "conditions": "in vivo"}, "[22]": {"assay": "Tmax in Sprague-Dawley rat at 5 mg/kg, iv", "assay_type": "ADME, organism-based", "conditions": "in vivo"}, "[23]": {"assay": "Observed MRT (0 to infinity) in Sprague-Dawley rat at 5 mg/kg, iv", "assay_type": "ADME, organism-based", "conditions": "in vivo"}, "[24]": {"assay": "Cmax in Sprague-Dawley rat at 10 mg/kg, po", "assay_type": "ADME, organism-based", "conditions": "in vivo"}, "[25]": {"assay": "Observed AUC (0 to infinity) in Sprague-Dawley rat at 10 mg/kg, po", "assay_type": "ADME, organism-based", "conditions": "in vivo"}, "[26]": {"tested_on": "Escherichia coli", "assay": "Antibacterial activity against Escherichia coli ATCC25922 infected in pyelonephritis C57BL/6 mouse model assessed as decrease in inflammatory cell infiltration in kidney at 3 to 10 mg/kg, iv qd for 3 days administered at 2 days post-infection by Hematoxylin-Eosin staining based analysis", "assay_type": "functional, organism-based", "conditions": "dose 3-10 mg/kg, time 3.0 day"}, "[27]": {"tested_on": "Escherichia coli", "assay": "Antibacterial activity against Escherichia coli ATCC25922 infected in pyelonephritis C57BL/6 mouse model assessed as recovery of white blood cells count in blood at 3 to 10 mg/kg, iv qd for 3 days administered at 2 days post-infection", "assay_type": "functional, organism-based", "conditions": "dose 3-10 mg/kg, time 3.0 day"}, "[28]": {"tested_on": "Escherichia coli", "assay": "Antibacterial activity against Escherichia coli ATCC25922 infected in pyelonephritis C57BL/6 mouse model assessed as recovery of neutrophils count in blood at 3 to 10 mg/kg, iv qd for 3 days administered at 2 days post-infection", "assay_type": "functional, organism-based", "conditions": "dose 3-10 mg/kg, time 3.0 day"}, "[29]": {"tested_on": "Escherichia coli", "assay": "Antibacterial activity against Escherichia coli ATCC25922 infected in pyelonephritis C57BL/6 mouse model assessed as decrease in IL-6 level in kidney at 3 to 10 mg/kg, iv qd for 3 days administered at 2 days post-infection by ELISA", "assay_type": "functional, organism-based", "conditions": "dose 3-10 mg/kg, time 3.0 day"}, "[30]": {"tested_on": "Escherichia coli", "assay": "Antibacterial activity against Escherichia coli ATCC25922 infected in pyelonephritis C57BL/6 mouse model assessed as decrease in IL-1 beta level in kidney at 3 to 10 mg/kg, iv qd for 3 days administered at 2 days post-infection by ELISA", "assay_type": "functional, organism-based", "conditions": "dose 3-10 mg/kg, time 3.0 day"}},
  "note": "Activity calls are given as the source filed them. The calls are words filed in the database; no cut-off is given here.",
  "data": [
    {"compound": "C=C[C@]1(C)C[C@@H](OC(=O)CSc2nc3cc[n+](Cc4ccc(C)cc4)cc3[nH]2)[C@]2(C)[C@H](C)CC[C@]3(CCC(=O)[C@H]32)[C@@H](C)[C@@H]1O.[Br-]", "values": [
      {"measurement": "solubility at 12 h", "setting": "[1]", "value": 573, "unit": "µg/mL"},
      {"measurement": "MIC", "setting": "[2]", "value": "< 1", "unit": "µg/mL"},
      {"measurement": "MIC", "setting": "[3]", "value": "< 1", "unit": "µg/mL"},
      {"measurement": "MIC", "setting": "[4]", "value": "< 1", "unit": "µg/mL"},
      {"measurement": "MIC", "setting": "[5]", "value": "< 1", "unit": "µg/mL"},
      {"measurement": "MIC", "setting": "[6]", "value": 2, "unit": "µg/mL"},
      {"measurement": "CC50 at 24 h", "setting": "[7]", "value": 96.4, "unit": "µM"},
      {"measurement": "CC50 at 24 h", "setting": "[8]", "value": "> 100", "unit": "µM"},
      {"measurement": "MIC", "setting": "[9]", "value": "< 0.04", "unit": "µg/mL"},
      {"measurement": "MIC", "setting": "[10]", "value": "< 0.04", "unit": "µg/mL"},
      {"measurement": "MIC", "setting": "[11]", "value": "< 0.04", "unit": "µg/mL"},
      {"measurement": "MIC", "setting": "[12]", "value": "< 0.04", "unit": "µg/mL"},
      {"measurement": "Activity", "setting": "[13]", "value": 88.55, "unit": "%"},
      {"measurement": "Activity", "setting": "[14]", "value": "Active; Almost Complete Eradication Of Bacteria Observed"},
      {"measurement": "Activity", "setting": "[15]", "value": "Active"},
      {"measurement": "Activity", "setting": "[16]", "value": "Active"},
      {"measurement": "Activity", "setting": "[17]", "value": "Active"},
      {"measurement": "Activity", "setting": "[18]", "value": "Active"},
      {"measurement": "Activity", "setting": "[19]", "value": "Active; Superior Efficacy Compared To Valnemulin Observed"},
      {"measurement": "Activity", "setting": "[20]", "value": "Active"},
      {"measurement": "Cmax", "setting": "[21]", "value": 25600, "unit": "ng/mL"},
      {"measurement": "Tmax", "setting": "[22]", "value": 1.8, "unit": "min"},
      {"measurement": "MRT inf", "setting": "[23]", "value": 68.4, "unit": "min"},
      {"measurement": "Cmax", "setting": "[24]", "value": 6210, "unit": "ng/mL"},
      {"measurement": "AUC(0-inf)", "setting": "[25]", "value": 15800, "unit": "ng·h/mL"},
      {"measurement": "Activity", "setting": "[26]", "value": "Active"},
      {"measurement": "Activity", "setting": "[27]", "value": "Active"},
      {"measurement": "Activity", "setting": "[28]", "value": "Active"},
      {"measurement": "Activity", "setting": "[29]", "value": "Dose-dependent-effect"},
      {"measurement": "Activity", "setting": "[30]", "value": "Dose-dependent-effect"}
    ]}
  ]
}
